Results from patent US20260125370A1, “SULFOXIMINE COMPOUNDS AS HISTONE DEACETYLASE 6 INHIBITOR, AND PHARMACEUTICAL COMPOSITION COMPRISING THE SAME” (CHONG KUN DANG PHARMACEUTICAL CORP., priority 2022, published 2026).

Legend:
[1] = target: T1, human recombinant HDAC1 (Homo sapiens, UniProt Q13547); test: HDAC1 enzyme activity inhibition (HDAC1 Fluorimetric Drug Discovery Assay Kit, in vitro); format: biochemical; details: samples at 100, 1000 and 10000 nM
T1 construct: purchased Enzolifesciences BML-SE456
T1 sequence (Q13547 whole entry): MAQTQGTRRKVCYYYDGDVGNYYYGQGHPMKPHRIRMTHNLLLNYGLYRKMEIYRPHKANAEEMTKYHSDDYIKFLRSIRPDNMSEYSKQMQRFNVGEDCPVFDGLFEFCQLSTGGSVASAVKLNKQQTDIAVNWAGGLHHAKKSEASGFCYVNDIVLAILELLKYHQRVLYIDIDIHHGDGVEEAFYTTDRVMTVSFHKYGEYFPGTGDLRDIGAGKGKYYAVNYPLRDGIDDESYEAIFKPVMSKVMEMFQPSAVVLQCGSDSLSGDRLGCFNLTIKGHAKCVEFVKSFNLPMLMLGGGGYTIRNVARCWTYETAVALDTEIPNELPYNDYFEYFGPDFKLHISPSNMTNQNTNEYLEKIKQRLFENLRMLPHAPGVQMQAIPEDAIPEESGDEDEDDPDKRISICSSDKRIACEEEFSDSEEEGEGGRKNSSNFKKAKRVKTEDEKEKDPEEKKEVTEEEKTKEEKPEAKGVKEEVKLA
Summary of the method: (§1)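 Recombinant human HDAC1 or HDAC6 (0.3 μg) with Fluor de Lys-SIRT1 substrate at […], 60 min at 37 °C, then developer 30 min; fluorescence Ex 360/Em 460. Compounds at 100–10000 nM for HDAC1 and 0.1–1000 nM for HDAC6; IC50 calculated.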

[2] = target: T2, human recombinant HDAC6 (Homo sapiens, UniProt Q9UBN7); test: HDAC6 enzyme activity inhibition (fluorimetric, in vitro); format: biochemical; details: samples at 0.1, 1, 10, 100 and 1000 nM
T2 construct: purchased Calbiochem 382180
T2 sequence (Q9UBN7 1-1215): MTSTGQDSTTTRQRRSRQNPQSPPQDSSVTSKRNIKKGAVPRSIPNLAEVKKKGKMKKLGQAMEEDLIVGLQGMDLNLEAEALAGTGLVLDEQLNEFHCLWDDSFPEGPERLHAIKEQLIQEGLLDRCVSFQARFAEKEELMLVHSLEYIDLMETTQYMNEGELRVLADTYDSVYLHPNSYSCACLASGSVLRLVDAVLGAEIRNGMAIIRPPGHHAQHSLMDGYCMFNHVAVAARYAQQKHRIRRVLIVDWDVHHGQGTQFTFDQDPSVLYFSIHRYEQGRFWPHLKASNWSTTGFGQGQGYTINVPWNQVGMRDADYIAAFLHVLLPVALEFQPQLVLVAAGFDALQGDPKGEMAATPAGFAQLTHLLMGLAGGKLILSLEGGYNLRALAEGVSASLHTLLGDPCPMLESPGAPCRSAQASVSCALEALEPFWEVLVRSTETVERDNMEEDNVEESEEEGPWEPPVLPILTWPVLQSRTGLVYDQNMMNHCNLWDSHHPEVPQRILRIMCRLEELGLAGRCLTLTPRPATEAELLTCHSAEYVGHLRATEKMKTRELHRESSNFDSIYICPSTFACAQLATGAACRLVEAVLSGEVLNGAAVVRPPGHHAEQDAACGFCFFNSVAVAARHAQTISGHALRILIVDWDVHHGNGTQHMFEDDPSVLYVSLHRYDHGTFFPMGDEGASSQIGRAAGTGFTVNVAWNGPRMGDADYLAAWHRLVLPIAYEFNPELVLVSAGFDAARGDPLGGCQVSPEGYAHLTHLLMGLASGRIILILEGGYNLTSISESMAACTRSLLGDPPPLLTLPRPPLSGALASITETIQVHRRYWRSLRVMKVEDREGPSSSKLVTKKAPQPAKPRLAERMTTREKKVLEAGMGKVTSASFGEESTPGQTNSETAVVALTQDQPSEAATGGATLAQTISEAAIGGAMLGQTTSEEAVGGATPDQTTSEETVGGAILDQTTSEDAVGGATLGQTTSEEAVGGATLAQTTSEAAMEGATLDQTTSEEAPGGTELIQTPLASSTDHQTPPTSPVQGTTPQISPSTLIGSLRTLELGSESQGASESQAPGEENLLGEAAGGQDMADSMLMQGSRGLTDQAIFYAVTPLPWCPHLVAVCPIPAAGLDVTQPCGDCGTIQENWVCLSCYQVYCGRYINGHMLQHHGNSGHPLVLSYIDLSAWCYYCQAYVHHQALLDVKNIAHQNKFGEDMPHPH
Summary of the method: as §1

SMILES | IC50 [1] [nM] | IC50 [2] [nM]
N=S1(=O)CCN(C(=O)N(Cc2ccc(-c3nnc(C(F)F)o3)cc2F)c2cccc(Br)c2)CC1 [Compound 41, N-(3-bromophenyl)-N-(4-(5-(difluoromethyl)-1,3,4-oxadiazol-2-yl)-2-fluorobenzyl)-1-iminothiomorpholin-4-carboxamide 1-oxide] | > 10000 | 28.9
N=S1(=O)CCC(NC(=O)N(Cc2ccc(-c3nnc(C(F)F)o3)cc2F)c2ccccc2)CC1 (stereo not shown) [Compound 59, 1-(4-(5-(difluoromethyl)-1,3,4-oxadiazol-2-yl)-2-fluorobenzyl)-3-(1-imino-1-oxidotetrahydro-2H-thiopyran-4-yl)-1-phenylurea] | > 10000 | 116
N=S1(=O)CCN(C(=O)N(Cc2c(F)cc(-c3nnc(C(F)F)o3)cc2F)c2ccccc2F)CC1 [Compound 54, N-(4-(5-(difluoromethyl)-1,3,4-oxadiazol-2-y1)-2,6-difluorobenzyl)-N-(2-fluorophenyl)-1-iminothiomorpholin-4-carboxamide 1-oxide] | > 10000 | 200
N=S1(=O)CCN(S(=O)(=O)N(Cc2ccc(-c3nnc(C(F)F)o3)cc2F)c2cc(F)ccc2F)CC1 [Compound 69, N-[[4-[5-(difluoromethyl)-1,3,4-oxadiazol-2-yl]-2-fluoro-phenyl]methyl]-N-(2,5-difluorophenyl)-1-imino-1-oxo-1,4-thiazinan-4-sulfonamide] | > 10000 | 124
CC1CN(C(=O)N(Cc2ccc(-c3nnc(C(F)F)o3)cc2F)c2ccccc2)CCS1(=N)=O (stereo not shown) [Compound 82, N-[[4-[5-(difluoromethyl)-1,3,4-oxadiazol-2-yl]-2-fluoro-phenyl]methyl]-1-imino-2-methyl-1-oxo-N-phenyl-1,4-thiazinan-4-carboxamide] | > 10000 | 93.1
O=C(N=S1(=O)CCN(C(=O)N(Cc2ccc(-c3nnc(C(F)F)o3)cc2F)c2ccccc2)CC1)OCc1ccccc1 [Compound 4, Benzyl (4-((4-(5-(difluoromethyl)-1,3,4-oxadiazol-2-yl)-2-fluorobenzyl)(phenyl)carbamoyl)-1-oxidothiomorpholin-1-ylidene)carbamate] | > 10000 | 390
CC(=O)N1CCC(c2ccc(N(Cc3ccc(-c4nnc(C(F)F)o4)cc3F)C(=O)N3CCS(=N)(=O)CC3)cc2)CC1 [Compound 67] | > 10000 | 347

The remaining lines, values ahead:

IC50 [1] [nM] | IC50 [2] [nM] | SMILES
> 10000 | 42.6 | N=S1(=O)CCN(C(=O)N(Cc2ccc(-c3nnc(C(F)F)o3)cn2)c2cccs2)CC1 [Compound 16, N-((5-(5-(difluoromethyl)-1,3,4-oxadiazol-2-yl)pyridin-2-yl)methyl)-1-imino-N-(thiophen-2-yl)thiomorpholin-4-carboxamide 1-oxide]
> 10000 | 105 | CC1CN(C(=O)N(Cc2ccc(-c3nnc(C(F)F)o3)cc2F)c2ccc(F)cc2)CC(C)S1(=N)=O (stereo not shown) [Compound 65, N-[[4-[5-(difluoromethyl)-1,3,4-oxadiazol-2-yl]-2-fluoro-phenyl]methyl]-N-(4-fluorophenyl)-1-imino-2,6-dimethyl-1-oxo-1,4-thiazinan-4-carboxamide]
> 10000 | 39 | N=S1(=O)C[C@@H]2C[C@H]1CN2C(=O)N(Cc1ccc(-c2nnc(C(F)F)o2)cc1F)c1ccccc1 (stereo partly drawn) [Compound 68, (1S,4S)—N-[[4-[5-(difluoromethyl)-1,3,4-oxadiazol-2-yl]-2-fluoro-phenyl]methyl]-2-imino-2-oxo-N-phenyl-2lambda6-thia-5-azabicyclo[2.2.1]heptan-5-carboxamide]
> 10000 | 37.4 | N=S1(=O)CC(N2C[C@@H]3C[C@H]2CN3c2c(N(Cc3ccc(-c4nnc(C(F)F)o4)cn3)c3ccccc3)c(=O)c2=O)C1 (stereo partly drawn) [Compound 87, 3-[N-[[5-[5-(difluoromethyl)-1,3,4-oxadiazol-2-yl]-2-pyridyl]methyl]anilino]-4-[(1S,4S)-5-(1-imino-1-oxo-thiethane-3-yl)-2,5-diazabicyclo[2.2.1]heptan-2-yl]cyclobut-3-en-1,2-dione]
